Experimental data published in patent US5723747A, “Wax esters in transformed plants” (Calgene, Inc., priority 1994, dated 1998).
Read-outs that look alike come from different tables or passages of the source.

Columns and labels:
[1] = molecular target: T1, jojoba acyl-CoA reductase (Simmondsia chinensis, UniProt Q9XGY7, S459G); design: The microsomal membrane preparation described above is used for further characterization of the reductase enzyme; from tissue; host or cells: jojoba embryos (about 90 to 110 days postanthesis), microsomal membrane preparation; settings: previously shown, Pollard et al.; cited from earlier work
[2] = molecular target: T2, jojoba wax synthase (Simmondsia chinensis, UniProt Q9XGY6); experiment: Wax synthase assay, microsomal membrane fraction; format: biochemical; settings: for Wax synthase Activity, Acyl Group: 80 μM acyl-CoA substrate, 100 μM radiolabeled oleyl alcohol; for Wax synthase Activity, Alcohol Group: 100 μM alcohol substrate, 40 μM radiolabeled eicosenoyl-CoA
T2 construct: added to a microsomal membrane fraction having wax synthase activity; from tissue; host or cells: jojoba microsomal membrane fraction
T2 sequence (Q9XGY6 1-352): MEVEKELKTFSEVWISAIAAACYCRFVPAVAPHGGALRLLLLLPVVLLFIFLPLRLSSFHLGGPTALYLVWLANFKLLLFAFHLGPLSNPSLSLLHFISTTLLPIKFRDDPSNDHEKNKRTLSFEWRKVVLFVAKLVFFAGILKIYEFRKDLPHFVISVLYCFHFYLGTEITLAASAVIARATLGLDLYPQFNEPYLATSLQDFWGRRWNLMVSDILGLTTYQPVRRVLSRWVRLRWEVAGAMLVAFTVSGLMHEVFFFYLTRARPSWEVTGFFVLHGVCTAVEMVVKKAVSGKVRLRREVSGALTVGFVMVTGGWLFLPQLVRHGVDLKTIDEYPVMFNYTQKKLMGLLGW
Experimental: Wax synthase activity is measured by incubation of 40 μM [1-^14 C]acyl-CoA (usually palmitoyl-CoA, sp. act. 5.1-5.6 mCi/mmol) and 200 μM oleyl alcohol with the sample to be assayed in a total volume of 0.25 ml. The incubation mixture also contains 20% w/v glycerol, 1 mM DTT, 0.5M NaCl and is buffered with 25 mM HEPES (4-[2-hydroxyethyl]-1-piperazineethane-sulfonic acid).
A substrate mixture is prepared in a glass vial, with oleyl alcohol being added immediately before use, and is added to samples.
Acyl-CoA and alcohol substrates having varying carbon chain lengths and degrees of unsaturation were added to a microsomal membrane fraction having wax synthase activity to determine the range of substrates recognized by the jojoba wax synthase. Wax synthase activity was measured as described in Example 1, with acyl specificity measured using 80 μM of acyl-CoA substrate and 100 μM of radiolabeled oleyl alcohol. Alcohol specificity was measured using 100 μM of alcohol substrate and 40 μM of radiolabeled eicosenoyl-CoA.

[3] = molecular target: T1, jojoba acyl-CoA reductase; experiment: biochemical; settings: for effect of salt on reductase activity (in words): 0.5M monobasic salts, divalent salts at 0.167M and 0.5M; for effect of end-products and cofactors on reductase activity (in words): CoA and NADP+ at millimolar concentrations; for Reductase Activity, Acyl-CoA (10 μM): acyl-CoA as substrate at 10 μM, 0.5M NaCl, pH 7.5
Experimental: (§1) […] The incubation mixture also contains 10% w/v glycerol, 1 mM DTT, and is buffered with 50 mM HEPES (4-[2-hydroxyethyl]-1-piperazineethane-sulfonic acid) (HEPES, here and as referred to hereafter is added from a 1M stock solution adjusted to pH 7.5).
(§2) […] The assay is terminated by placing the assay tube on ice and immediately adding 0.25 ml isopropanol:acetic acid (5:1 v/v). Unlabeled wax esters (0.1 mg) and oleyl alcohol (0.1 mg) are added as carriers. The [^14 C] lipids are extracted by the scaled-down protocol of Hara and Radin (Anal. Biochem. (1978) 90:420). Six ml of hexane/isopropanol (3:2, v/v) is added to the terminated assay. The sample is vortexed, 2 ml of aqueous sodium sulphate solution (5.5% w/v) is added, and the sample is again vortexed.
(§3) The incubation mixture also contains 10% w/v glycerol, 1 mM DTT, and is buffered with 50 mM HEPES (4-[2-hydroxyethyl]-1-piperazineethane-sulfonic acid) (HEPES, here and as referred to hereafter is added from a 1M stock solution adjusted to pH 7.5). […]
as §2, with “(4:1” for “(5:1”, “(25 μg),” for “(0.1 mg) and”, “(50 μg), and oleic acid (50 μg)” for “(0.1 mg)”, “Four” for “Six”, “(6.7%” for “(5.5%”
(§4) Following addition of the sodium sulphate and vortexing the sample, the upper organic phase is removed and the lower aqueous phase is washed with 4 ml hexane/isopropanol (7:2 v/v). The organic phases are pooled and evaporated to dryness under nitrogen. The lipid residue is resuspended in a small volume of heptane, and an aliquot is assayed for radioactivity by liquid scintillation counting. The remainder of the sample can be used either for TLC analysis of the labeled classes, or for derivatization to cleave the wax esters, and thereby give a measure of total alcohol produced.
(§5) For lipid class analysis the sample is applied to a silica TLC plate, and the plate is developed in hexane/diethyl ether/acetic acid (such as 80:20:1 or 70:30:1 v/v/v). The distribution of radioactivity between the lipid classes, largely wax esters (when ligase is present, as in the microsomal membrane preparation assay), free fatty acids, fatty alcohols, and polar lipids at the origin, is measured using an AMBIS radioanalytic imaging system (AMBIS Systems Inc., San Diego, Calif.). If necessary the individual lipid classes can be recovered from the TLC plate for further analysis.
(§6) Following addition of the sodium sulfate and vortexing the sample, a known percentage of the organic phase is removed and counted via liquid scintillation counting. This calculation is used to estimate the total counts in the organic phase.

[4] = molecular target: T3, acyl CoA: alcohol acyl transferase (Simmondsia chinensis, UniProt Q9XGY6); experiment: Acyl CoA: alcohol acyl transferase activity in the membrane preparation; format: biochemical, jojoba; settings: 0.3% w/v in the assay mixture
T3 construct: activity which is also present in the membrane preparation; from tissue; host or cells: microsomal membrane preparation (jojoba embryos)
T3 sequence (Q9XGY6 1-352): T2 sequence (Q9XGY6 1-352)
Text: If it is desired to inhibit an acyl CoA: alcohol acyl transferase activity which is also present in the membrane preparation (and which consumes the product of the reductase reaction), 0.3% w/v CHAPS is included in the assay mixture.

[5] = molecular target: jojoba acyl-CoA reductase (Simmondsia chinensis, UniProt Q9XGY7); experiment: biochemical
Experimental: as §1, §2, §3
as §2, with “(4:1” for “(5:1”, “(25 μg),” for “(0.1 mg) and”, “(50 μg), and oleic acid (50 μg)” for “(0.1 mg)”, “Four” for “Six”, “(6.7%” for “(5.5%”
as §4, §5, §6

[6] = palmitoyl thioesters as acyl substrates

T1 sequence (Q9XGY7 whole entry S459G): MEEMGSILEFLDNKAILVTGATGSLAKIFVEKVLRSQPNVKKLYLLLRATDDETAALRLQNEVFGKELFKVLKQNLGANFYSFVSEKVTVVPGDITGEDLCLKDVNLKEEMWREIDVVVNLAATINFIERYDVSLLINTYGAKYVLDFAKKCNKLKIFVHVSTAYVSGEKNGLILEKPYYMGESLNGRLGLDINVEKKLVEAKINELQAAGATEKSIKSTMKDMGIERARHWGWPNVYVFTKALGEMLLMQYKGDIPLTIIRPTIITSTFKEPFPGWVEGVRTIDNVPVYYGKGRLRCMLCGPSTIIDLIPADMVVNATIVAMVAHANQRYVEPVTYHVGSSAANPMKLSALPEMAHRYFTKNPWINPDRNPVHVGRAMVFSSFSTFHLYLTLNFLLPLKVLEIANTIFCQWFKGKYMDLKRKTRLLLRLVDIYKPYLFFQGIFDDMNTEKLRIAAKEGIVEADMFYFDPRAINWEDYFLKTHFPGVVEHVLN
jojoba acyl-CoA reductase (Simmondsia chinensis, UniProt Q9XGY7), sequence (Q9XGY7 whole entry S459G): as above

## stearoyl-ACP
[1]
  activity as substrate of the reductase (in words): shown to have activity as a substrate

## CCCCCCCCCCCCCCCCCCCC(=O)SCCNC(=O)CCNC(=O)[C@H](O)C(C)(C)COP(=O)(O)OP(=O)(O)OC[C@H]1O[C@@H](n2cnc3c(N)ncnc32)[C@H](O)[C@@H]1OP(=O)(O)O [20:0]
[2]
  Wax synthase Activity, Acyl Group: 49 pmol/min
  Wax synthase Activity, Alcohol Group: 21 pmol/min

## CCCCC/C=C\C/C=C\CCCCCCCC(=O)SCCNC(=O)CCNC(=O)[C@H](O)C(C)(C)COP(=O)(O)OP(=O)(O)OC[C@H]1O[C@@H](n2cnc3c(N)ncnc32)[C@H](O)[C@@H]1OP(=O)(O)O [18:2]
[2]
  Wax synthase Activity, Acyl Group: 7 pmol/min
  Wax synthase Activity, Alcohol Group: 123 pmol/min

## [Cl-].[K+] [KC1]
[3]
  effect of salt on reductase activity (in words): stimulate reductase activity

## NC(=O)c1ccc[n+]([C@@H]2O[C@H](COP(=O)([O-])OP(=O)(O)OC[C@H]3O[C@@H](n4cnc5c(N)ncnc54)[C@H](O)[C@@H]3O)[C@@H](O)[C@H]2O)c1 [AND+]
[3]
  effect of end-products and cofactors on reductase activity (in words): marginal effects

## O[C@H](CS)[C@H](O)CS (racemic) [DTT, Dithiothreitol]
[3]
  effect of effector on reductase activity (in words): stimulatory

## bovine serum albumin [BSA]
[3]; concentrations at and above 0.2 mg/ml
  effect on reductase activity (in words): inhibition of activity
[3]; low concentrations, 0.02-0.075 mg/ml
  effect on reductase activity (in words): small stimulation

## CCN1C(=O)C=CC1=O [N-ethylmaleimide]
[3]
  inhibitory effect on jojoba acyl-CoA reductase activity (in words): strongly inhibit

## CCCCCCCCCCCCCCCCCC(=O)SCCNC(=O)CCNC(=O)[C@H](O)C(C)(C)COP(=O)(O)OP(=O)(O)OC[C@H]1O[C@@H](n2cnc3c(N)ncnc32)[C@H](O)[C@@H]1OP(=O)(O)O [18:0]
[3]
  Reductase Activity, Acyl-CoA (10 μM): 1.4 pmol/min/µL
[2]
  Wax synthase Activity, Acyl Group: 51 pmol/min
  Wax synthase Activity, Alcohol Group: 56 pmol/min

## CC(C)(COP(=O)(O)OP(=O)(O)OC[C@H]1O[C@@H](n2cnc3c(N)ncnc32)[C@H](O)[C@@H]1OP(=O)(O)O)[C@@H](O)C(=O)NCCC(=O)NCCS [CoA]
[3]
  effect of end-products and cofactors on reductase activity (in words): significant inhibition

## CCCCCCCC/C=C\CCCCCCCCCCCC(=O)SCCNC(=O)CCNC(=O)[C@H](O)C(C)(C)COP(=O)(O)OP(=O)(O)OC[C@H]1O[C@@H](n2cnc3c(N)ncnc32)[C@H](O)[C@@H]1OP(=O)(O)O [22:1]
[3]
  Reductase Activity, Acyl-CoA (10 μM): 1.0 pmol/min/µL
[2]
  Wax synthase Activity, Acyl Group: 39 pmol/min
  Wax synthase Activity, Alcohol Group: 41 pmol/min

## [Ca+2].[Cl-].[Cl-] [CaCl2]
[3]
  effect of salt on reductase activity (in words): stimulate reductase activity

## CCCCCCCCCCCCCC(=O)SCCNC(=O)CCNC(=O)[C@H](O)C(C)(C)COP(=O)(O)OP(=O)(O)OC[C@H]1O[C@@H](n2cnc3c(N)ncnc32)[C@H](O)[C@@H]1OP(=O)(O)O [14:0]
[2]
  Wax synthase Activity, Acyl Group: 95 pmol/min
  Wax synthase Activity, Alcohol Group: 145 pmol/min

## C[C@H](CCC(=O)NCCC[N+](C)(C)CCCS(=O)(=O)[O-])[C@H]1CC[C@H]2[C@@H]3[C@H](O)C[C@@H]4C[C@H](O)CC[C@]4(C)[C@H]3C[C@H](O)[C@]12C [CHAPS, 3-[(3-cholamidopropyl)-dimethyl-ammonio]-1-propanesulfonate]
[3]; 0.3% w/v in the assay mixture
  effect on the reductase enzyme (in words): minimal effect
[4]
  effect on the acyl transferase reaction (in words): completely inhibits

## CCCCCCCCCCCCCCCC(=O)SCCNC(=O)CCNC(=O)[C@H](O)C(C)(C)COP(=O)(O)OP(=O)(O)OC[C@H]1O[C@@H](n2cnc3c(N)ncnc32)[C@H](O)[C@@H]1OP(=O)(O)O [16:0, palmitoyl-CoA]
[5]
  IC50: 5 µM

## C/C=C/C/C=C/CCC(=O)[C@H]1O[C@H]1C(N)=O [Cerulinen]
[3]
  inhibitory effect on jojoba acyl-CoA reductase activity (in words): no strong inhibitory effect

## O=C(O)c1cc[c]([Hg][OH])cc1 [para-hydroxymercuribenzoate]
[3]
  inhibitory effect on jojoba acyl-CoA reductase activity (in words): some inhibitory effect

## N#CS [KSCN]
[3]
  effect of salt on reductase activity (in words): no stimulation or marginal stimulation

## CC[C@H](C)C(=O)O[C@H]1C[C@@H](C)C=C2C=C[C@H](C)[C@H](CC[C@@H]3C[C@@H](O)CC(=O)O3)[C@H]21 [Mevinolin]
[3]; only has an effect at relatively high concentrations
  concentration at which an effect on jojoba acyl-CoA reductase is seen: 100 µM

## NC(=O)c1ccc[n+]([C@@H]2O[C@H](COP(=O)([O-])OP(=O)(O)OC[C@H]3O[C@@H](n4cnc5c(N)ncnc54)[C@H](OP(=O)(O)O)[C@@H]3O)[C@@H](O)[C@H]2O)c1 [NADP+]
[3]
  effect of end-products and cofactors on reductase activity (in words): significant inhibition

## palmitoyl-ACP [16:0]
[3]; substrate specificity experiment, 10 uM substrate
  activity as substrate of the reductase (in words): high
[2]; [6]
  wax synthase activity relative to acyl-CoA: ~ 10 % of that with acyl-CoA

## [Cl-].[Na+] [NaCl]
[3]; addition of 0.5M salt, 500000 µM
  stimulation of reductase activity: Up to 15 fold

## CCCCCCCCCCCCCCCC(=O)SCCNC(C)=O [N-acetyl-S-palmitoyl cysteamine]
[2]; [6]
  wax synthase activity towards acyl-thioester substrates (in words): no activity was detectable

## CCCCCCCCCCCCCCCCCCCCCC(=O)SCCNC(=O)CCNC(=O)[C@H](O)C(C)(C)COP(=O)(O)OP(=O)(O)OC[C@H]1O[C@@H](n2cnc3c(N)ncnc32)[C@H](O)[C@@H]1OP(=O)(O)O [22:0]
[2]
  Wax synthase Activity, Acyl Group: 46 pmol/min
  Wax synthase Activity, Alcohol Group: 17 pmol/min

## [Cl-].[Cl-].[Mg+2] [MgCl2]
[3]
  effect of salt on reductase activity (in words): stimulate reductase activity

## NC(=O)C1=CN([C@@H]2O[C@H](COP(=O)(O)OP(=O)(O)OC[C@H]3O[C@@H](n4cnc5c(N)ncnc54)[C@H](O)[C@@H]3O)[C@@H](O)[C@H]2O)C=CC1 [NADH]
[3]
  effect of end-products and cofactors on reductase activity (in words): marginal effects

## NC(=O)CI [iodoacetamide]
[3]
  inhibitory effect on jojoba acyl-CoA reductase activity (in words): no effect

## O=S(=O)([O-])[O-].[Na+].[Na+] [Na2 SO4]
[3]
  effect of salt on reductase activity (in words): stimulate reductase activity

## O=C(O)CN(CCN(CC(=O)O)CC(=O)O)CC(=O)O [EDTA, ethylenediaminetetraacetic acid]
[3]
  effect of effector on reductase activity (in words): some stimulation

## [Cl-].[Li+] [LiC1]
[3]
  effect of salt on reductase activity (in words): stimulate reductase activity
